According to patent publication US20250152585A1, “PHARMACEUTICAL COMPOUND” (Duke Street Bio Limited, priority 2022, published 2025):
Where two headings read alike, the source gives them in different places.

Tests used:
[1] = biological target: T1, full length N-terminally FLAG-tagged PARP1 (Homo sapiens, UniProt P09874); test: PARP1 biochemical DELFIA assay (auto-PARylation); parameters: recombinant full length human N-terminally FLAG-tagged PARP1
[2] = biological target: T2, N-terminally FLAG-tagged PARP2 (amino acids 1-583) (Homo sapiens, UniProt Q9UGN5); test: PARP2 probe displacement HTRF assay; type: binding; conditions: binned Kd
T2 construct: N-terminally FLAG-tagged PARP2 (amino acids 1-583)
Method: Data analysis was performed identical as for PARP1.

[3] = biological target: T1, full length N-terminally FLAG-tagged PARP1; test: PARP1 probe displacement HTRF assay; conditions: for Selectivity: PARP1 over PARP2, ratio Kd (PARP2)/Kd (PARP1); for Kd: binned Kd
[4] = binned IC50, biochemical auto-PARylation assay
[5] = read-out: PARP1 HTRF, probe displacement HTRF
[6] = binned IC50, PARP1 biochemical DELFIA assay
[7] = read-out: PARP1 HTRF, PARP1 probe displacement HTRF

T2 sequence (Q9UGN5 whole entry, the tested form may be a part): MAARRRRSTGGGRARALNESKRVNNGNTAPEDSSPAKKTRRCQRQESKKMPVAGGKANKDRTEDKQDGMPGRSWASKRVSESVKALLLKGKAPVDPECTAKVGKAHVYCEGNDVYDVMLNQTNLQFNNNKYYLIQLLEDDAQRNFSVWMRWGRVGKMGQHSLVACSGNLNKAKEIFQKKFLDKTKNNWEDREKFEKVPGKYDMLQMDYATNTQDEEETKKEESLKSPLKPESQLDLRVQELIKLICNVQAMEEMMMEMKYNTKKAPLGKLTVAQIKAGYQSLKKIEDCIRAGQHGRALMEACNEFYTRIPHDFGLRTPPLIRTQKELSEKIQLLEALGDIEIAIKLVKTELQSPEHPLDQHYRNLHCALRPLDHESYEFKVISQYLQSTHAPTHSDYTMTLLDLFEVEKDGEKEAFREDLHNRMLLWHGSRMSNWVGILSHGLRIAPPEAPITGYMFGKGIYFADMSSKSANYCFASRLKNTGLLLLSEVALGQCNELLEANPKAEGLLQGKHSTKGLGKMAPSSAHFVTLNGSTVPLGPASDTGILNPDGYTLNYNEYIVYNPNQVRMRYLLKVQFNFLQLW
T1 sequence (P09874 whole entry, the tested form may be a part): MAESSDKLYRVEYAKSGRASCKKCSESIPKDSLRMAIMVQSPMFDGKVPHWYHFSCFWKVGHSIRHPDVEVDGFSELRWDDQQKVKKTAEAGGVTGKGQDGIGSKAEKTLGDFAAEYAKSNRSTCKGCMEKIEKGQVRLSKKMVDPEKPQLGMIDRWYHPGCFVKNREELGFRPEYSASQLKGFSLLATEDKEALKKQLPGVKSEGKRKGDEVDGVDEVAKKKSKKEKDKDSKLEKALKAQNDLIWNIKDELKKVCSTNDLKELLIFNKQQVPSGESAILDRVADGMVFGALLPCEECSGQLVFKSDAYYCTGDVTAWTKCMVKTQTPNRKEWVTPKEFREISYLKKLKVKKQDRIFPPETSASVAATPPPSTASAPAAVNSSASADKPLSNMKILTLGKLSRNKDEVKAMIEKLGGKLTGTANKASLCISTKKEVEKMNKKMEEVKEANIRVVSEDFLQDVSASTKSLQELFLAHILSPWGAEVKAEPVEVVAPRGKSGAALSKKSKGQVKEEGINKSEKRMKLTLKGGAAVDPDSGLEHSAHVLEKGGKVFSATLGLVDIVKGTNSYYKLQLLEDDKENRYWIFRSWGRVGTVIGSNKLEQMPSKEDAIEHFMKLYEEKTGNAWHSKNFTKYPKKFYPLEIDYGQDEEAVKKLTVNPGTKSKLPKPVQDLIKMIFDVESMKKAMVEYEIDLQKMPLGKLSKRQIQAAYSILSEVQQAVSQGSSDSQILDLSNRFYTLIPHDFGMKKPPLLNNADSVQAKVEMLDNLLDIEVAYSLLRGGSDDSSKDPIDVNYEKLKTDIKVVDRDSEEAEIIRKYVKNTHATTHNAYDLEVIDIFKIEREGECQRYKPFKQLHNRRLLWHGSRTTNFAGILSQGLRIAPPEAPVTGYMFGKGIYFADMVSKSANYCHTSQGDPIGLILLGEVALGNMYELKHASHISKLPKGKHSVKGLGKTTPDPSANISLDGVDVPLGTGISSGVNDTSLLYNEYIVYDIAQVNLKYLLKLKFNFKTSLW

SMILES	IC50 [1, 4] [nM]	Kd ([2]; probe displacement HTRF) [nM]	Selectivity ([3]; probe displacement HTRF)	Kd [3, 5] [nM]	IC50 [1, 6] [nM]	Kd ([2]; PARP2 probe displacement HTRF) [nM]	Kd [3, 7] [nM]	Kd ([3]; PARP1 HTRF, PARP1 probe displacement HTRF) [nM]
CNC(=O)c1ccc(N2CCC(N3CCC(F)(c4nc5ccccc5c(=O)[nH]4)C3)CC2)cn1 (single isomer, unassigned) [Compound 328a]	100 to 1000	> 10000	+ (+ indicates a value of 10 to less than 50)	100 to 1000	–	–	–	–
CCCc1ccc(C2CCN(C3CCN(c4ccc(C(=O)NC)nc4F)CC3)C2)[nH]c1=O (single isomer, unassigned) [Compound 269a]	< 10	1000 to 10000	+++ (+++ indicate a value of at least 100)	< 10	–	–	–	–
O=c1[nH]c(C2CCCN(C3CCN(c4ccc(F)cc4F)CC3)C2)nc2ccccc12 (single isomer, unassigned) [Compound 113a]	–	–	− (− indicates a value of less than 10)	–	100 to 1000	100 to 1000	100 to 1000	–
O=C(NCCF)c1ccc(N2CCC(N3CCCC(c4nc5ccccc5c(=O)[nH]4)C3)CC2)cn1 (single isomer, unassigned) [Compound 110a]	–	–	+++ (+++ indicate a value of at least 100)	–	< 10	> 10000	< 10	–
CCc1ccc(C2CCN(C3CCN(c4cnc(C(=O)NC)nc4C(F)(F)F)CC3)C2)[nH]c1=O (racemic) [Compound 278rac]	10 to 100	> 10000	+++ (+++ indicate a value of at least 100)	10 to 100	–	–	–	–
CNC(=O)c1ccc(N2CCC(N3CCC(O)(c4nc5ccccc5c(=O)[nH]4)C3)CC2)cn1 (single isomer, unassigned) [Compound 140b]	–	–	+++ (+++ indicate a value of at least 100)	–	10 to 100	1000 to 10000	10 to 100	–
CCc1ccc(C2CCN(C3CCN(c4ccc(C(=O)NC)cc4F)CC3)C2)[nH]c1=O (single isomer, unassigned) [Compound 366b]	< 10	100 to 1000	++ (++ indicates a value of 50 to less than 100)	< 10	–	–	–	–
O=C(NCC(F)(F)F)c1ccc(N2CCC(N3CCC(c4nc5ccccc5c(=O)[nH]4)C3)CC2)cn1 (single isomer, unassigned) [Compound 130b]	–	–	+++ (+++ indicate a value of at least 100)	–	< 10	100 to 1000	< 10	–
CNC(=O)c1ccc(N2CCC(C(=O)N3CCC(c4ncc(C(F)(F)F)c(=O)[nH]4)CC3)CC2)cn1 [Compound 59]	–	–	− (− indicates a value of less than 10)	–	1000 to 10000	> 10000	–	100 to 1000
CCc1ccc(C2CCN(C3CCN(c4ccc(C(=O)NCC(F)(F)F)nc4)CC3)C2)[nH]c1=O (racemic) [Compound 153rac]	–	–	++ (++ indicates a value of 50 to less than 100)	–	< 10	100 to 1000	< 10	–
O=C(NCCF)c1ccc(N2CCC(N3CCCC(c4nc5ccccc5c(=O)[nH]4)C3)CC2)cn1 (single isomer, unassigned) [Compound 110b]	–	–	− (− indicates a value of less than 10)	–	100 to 1000	100 to 1000	10 to 100	–
CNC(=O)c1ccc(N2CCC(N3CCC(c4cc5ncccc5c(=O)[nH]4)C3)CC2)cn1 (single isomer, unassigned) [Compound 218b]	–	–	+++ (+++ indicate a value of at least 100)	–	< 10	100 to 1000	< 10	–
CNC(=O)c1cnc(N2CCC(N3CCC(c4cc5ccccc5c(=O)[nH]4)C3)CC2)s1 (racemic) [Compound 320rac]	100 to 1000	1000 to 10000	− (− indicates a value of less than 10)	100 to 1000	–	–	–	–
CCNC(=O)c1ccc(N2CCC(N3CCCC(c4nc5ccccc5c(=O)[nH]4)C3)CC2)cn1 (single isomer, unassigned) [Compound 122a]	–	–	+++ (+++ indicate a value of at least 100)	–	< 10	> 10000	10 to 100	–
O=C(NC1COC1)c1ccc(N2CCC(N3CCC(c4nc5ccccc5c(=O)[nH]4)C3)CC2)cn1 (racemic) [Compound 229rac]	10 to 100	100 to 1000	+++ (+++ indicate a value of at least 100)	< 10	–	–	–	–
CNC(=O)c1cc(C(F)(F)F)c(N2CCC(N3CCC(c4cc5cccc(F)c5c(=O)[nH]4)C3)CC2)cn1 (single isomer, unassigned) [Compound 308b]	< 10	100 to 1000	+++ (+++ indicate a value of at least 100)	< 10	–	–	–	–
N#Cc1ccc(N2CCC(N3CCCC(c4nc5ccccc5c(=O)[nH]4)C3)CC2)cn1 (single isomer, unassigned) [Compound 70a]	–	–	+ (+ indicates a value of 10 to less than 50)	–	10 to 100	1000 to 10000	100 to 1000	–
CS(=O)(=O)Nc1ccc(N2CCC(N3CCC(c4nc5ccccc5c(=O)[nH]4)C3)CC2)cn1 (single isomer, unassigned) [Compound 291a]	10 to 100	1000 to 10000	+ (+ indicates a value of 10 to less than 50)	100 to 1000	–	–	–	–
O=c1[nH]c(CC2CCCN(C3CCC(F)(F)CC3)C2)nc2ccccc12 (single isomer, unassigned) [Compound 11a]	–	–	− (− indicates a value of less than 10)	–	1000 to 10000	> 10000	100 to 1000	–
CNC(=O)c1ccc(N2CCC(N3CCC(c4ccc(OC)c(=O)[nH]4)C3)CC2)c(C(F)(F)F)n1 (single isomer, unassigned) [Compound 152a]	–	–	+++ (+++ indicate a value of at least 100)	–	< 10	1000 to 10000	< 10	–
CNC(=O)c1ccc(N2CCC(N3CCC(c4cc5ccc(F)cc5c(=O)[nH]4)C3)CC2)nn1 (single isomer, unassigned) [Compound 197b]	–	–	+++ (+++ indicate a value of at least 100)	–	10 to 100	1000 to 10000	10 to 100	–
CNC(=O)c1cnc(N2CCC(N3CCC(c4nc5ccccc5c(=O)[nH]4)C3)CC2)cn1 (single isomer, unassigned) [Compound 96a]	–	–	+ (+ indicates a value of 10 to less than 50)	–	10 to 100	1000 to 10000	10 to 100	–
CNC(=O)c1ccc(N2CCC(N3CCCC(c4nc5c(c(C(F)(F)F)nn5C)c(=O)[nH]4)C3)CC2)cn1 (single isomer, unassigned) [Compound 190a]	–	–	+ (+ indicates a value of 10 to less than 50)	–	100 to 1000	1000 to 10000	100 to 1000	–
CNC(=O)c1ccc(N2CCC(N3CCC(c4cc5cccnc5c(=O)[nH]4)C3)CC2)cn1 (racemic) [Compound 203rac]	–	–	+++ (+++ indicate a value of at least 100)	–	< 10	> 10000	< 10	–
N#Cc1ccc(N2CCC(N3CCC(c4cc5ccc(F)cc5c(=O)[nH]4)C3)CC2)c(F)c1 (single isomer, unassigned) [Compound 385b]	< 10	10 to 100	+++ (+++ indicate a value of at least 100)	< 10	–	–	–	–
CNC(=O)c1ccc(N2CCC(N3CCC(c4cc5ccc(Cl)cc5c(=O)[nH]4)C3)CC2)cn1 (single isomer, unassigned) [Compound 129a]	–	–	+++ (+++ indicate a value of at least 100)	–	< 10	1000 to 10000	< 10	–
NC(=O)c1ccc(N2CCC(N3CCC(c4nc5ccccc5c(=O)[nH]4)C3)CC2)cn1 (single isomer, unassigned) [Compound 123a]	–	–	+ (+ indicates a value of 10 to less than 50)	–	10 to 100	100 to 1000	10 to 100	–
O=C(NCC(F)(F)F)c1ccc(N2CCC(N3CCC(c4nc5ccccc5c(=O)[nH]4)C3)CC2)cn1 (single isomer, unassigned) [Compound 130a]	–	–	+ (+ indicates a value of 10 to less than 50)	–	< 10	100 to 1000	< 10	–
